Results from PMC8868518, “Exploring Titanium(IV) Complexes as Potential Antimicrobial Compounds” (Antibiotics, 2022).
Read-outs that look alike come from different tables or passages of the source.

Key:
[1] = test system: E. coli (ATCC 25922); experiment: CO-ADD antibacterial assay, growth inhibition (OD600); type: cell-based, Escherichia coli; conditions: up to 32 μg/mL; for MIC E. coli: predicted or measured MIC, ≥75% growth inhibition
Protocol: (§1) Dry compounds ranging from 1–2 mg were weighed into properly labeled Eppendorf tubes and sealed with parafilm. The compounds were used as received by the CO-ADD. For the screenings, most compounds were dissolved to a stock concentration of 10 mg/mL in DMSO. K2[Ti(Citrate)3], Na3Citrate, and K2[TiO(Oxalate)2] were dissolved in warm water. […] Samples were diluted in water to a final testing concentration of 32 µg/mL while keeping the final co-solvent concentration to a maximum of 0.5%. Where applicable, compounds were serially diluted 1:2 fold eight times. Each sample concentration was prepared in 384-well plates, non-binding surface plate (NBS; Corning 3640) for each bacterial/fungal strain, tissue-culture treated (TC-treated; Corning 3712/3764), black for mammalian cell types and polypropylene 384-well (PP; Corning 3657) for hemolysis assays, all in duplicate (n = 2), and keeping the final DMSO concentration to a maximum of 0.5%. All sample preparation was conducted using liquid handling robots.
(§2) For the bacterial assays, four Gram-negative bacteria (E. coli (ATCC 25922, Manassas, VA, USA); K. pneumoniae (ATCC 700603), A. baumannii; (ATCC 19606), and P. aeruginosa (ATCC 27853) and the Gram-positive bacteria (S. aureus MRSA (ATCC 43300) were used. Each strain was cultured in cation-adjusted Mueller Hinton broth (CAMHB; Bacto Laboratories 212322, Mount Pritchard, Australia) at 37 °C overnight. A sample of each culture was then diluted 40-fold in fresh CAMHB and incubated at 37 °C for 1.5–3 h. The resultant mid-log phase cultures were diluted with CAMHB (CFU/mL measured by OD600), then added to each well of the compound-containing plates (384-well non-binding surface (NBS) plates; Corning CLS3640, Millipore Sigma, Burlington, MA, USA), giving a cell density of 5 × 10^5 CFU/mL and a total volume of 50 µL. Plates were covered and incubated at 37 °C for 18 h without shaking. Inhibition of bacterial growth was determined by measuring absorbance at 600 nm (OD600) with a Tecan M1000 Pro monochromator plate reader, using media-only as negative control and bacteria without inhibitors as a positive control. […] Colistin sulfate (Sigma C4461) and vancomycin HCl (Sigma 861987) were used as internal controls on each plate for Gram-negative and Gram-positive bacteria, respectively.

[2] = test system: C. albicans (ATCC 90028); experiment: CO-ADD antifungal assay, growth inhibition (OD630); type: cell-based, Candida albicans; conditions: up to 32 μg/mL; for MIC C. albicans: predicted or measured MIC, ≥75% growth inhibition, 36 h
Protocol: (§3) The compounds were used as received by the CO-ADD. For the screenings, most compounds were dissolved to a stock concentration of 10 mg/mL in DMSO. K2[Ti(Citrate)3], Na3Citrate, and K2[TiO(Oxalate)2] were dissolved in warm water. [Cu(Deferasirox)(H2O)]2 was dissolved in pyridine after its solubility was determined to be excellent in pyridine due to coordination of the solvent to the metal producing [Cu(Deferasirox)(pyridine)]2 in situ. […] Each sample concentration was prepared in 384-well plates, non-binding surface plate (NBS; Corning 3640) for each bacterial/fungal strain, tissue-culture treated (TC-treated; Corning 3712/3764), black for mammalian cell types and polypropylene 384-well (PP; […] All sample preparation was conducted using liquid handling robots. For the fungal assays, the fungi (C. albicans (ATCC 90028) and C. neoformans) (ATCC 208821) were used. Both fungi (yeast) strains were cultured for 3 days on Yeast Extract-Peptone Dextrose (YPD; Becton Dickinson 242720, Thermo Fisher Scientific, Waltham, MA, USA) agar at 30 °C. A yeast suspension of 1 × 10^6 to 5 × 10^6 CFU/mL (as determined by OD530) was prepared from five colonies from the agar plates, subsequently diluted with Yeast Nitrogen Base media (YNB; Becton Dickinson 233520, Thermo Fisher Scientific, Waltham, MA, USA), and added to each well of the compound-containing plates (384-well plates, NBS; Corning CLS3640) giving a final cell density of 2.5 × 10^3 CFU/mL and a total volume of 50 μL. Plates were covered and incubated at 35 °C for 36 h without shaking. […] Sigma R7017) and incubation at 35 °C for 2 h, using media-only as a negative control and fungi without inhibitors as a positive control. […] Fluconazole (Sigma F8929) was used as an internal control on each plate for both strains.

[3] = test system: C. neoformans (ATCC 208821); experiment: CO-ADD antifungal assay, growth inhibition (resazurin, OD600-570); type: cell-based, Cryptococcus neoformans; conditions: up to 32 μg/mL; for MIC C. neoformans: predicted or measured MIC, ≥75% growth inhibition, 36 h
Protocol: as §3

[4] = test system: P. aeruginosa (ATCC 27853); experiment: CO-ADD antibacterial assay, growth inhibition (OD600); type: cell-based, Pseudomonas aeruginosa; conditions: up to 32 μg/mL; for MIC P. aeruginosa: predicted or measured MIC, ≥75% growth inhibition
Protocol: as §1, §2

[5] = test system: S. aureus MRSA (ATCC 43300); experiment: as above; type: cell-based, Staphylococcus aureus; conditions: for MIC S. aureus (MRSA): predicted or measured MIC, lowest concentration with ≥75% growth inhibition, 0.25-32 μg/mL, 18 h; for Dmax S. aureus (MRSA), maximum % inhibition: up to 32 μg/mL
Protocol: as §1, §2

[6] = test system: K. pneumoniae (ATCC 700603); experiment: as above; type: cell-based, Klebsiella pneumoniae; conditions: up to 32 μg/mL; for MIC K. pneumoniae: predicted or measured MIC, ≥75% growth inhibition
Protocol: as §1, §2

[7] = test system: A. baumannii (ATCC 19606); experiment: as above; type: cell-based, Acinetobacter baumannii; conditions: up to 32 μg/mL; for MIC A. baumannii: predicted or measured MIC, ≥75% growth inhibition
Protocol: as §1, §2

[8] = test system: MRC-5 cells; experiment: MRC-5 cell viability, dose-response treatment, MTT assay; type: cell-based, human; conditions: MRC-5 cells, MTT, 72 h, pH 7.4, n = 6, this work
Protocol: A thawed stock of MRC-5 cells was washed with 1X PBS and resuspended in phenol red DMEM media (supplemented with 10% FBS and 1% of penicillin-streptomycin) and then seeded in a 100 mm × 20 mm (complete, O.D. x H) petri dish and grown in a 5% (v/v) CO2 humidified atmosphere at 37 °C. At least three passages were performed to ensure the integrity of the cells. After this point, cells were collected, thoroughly washed with 1X PBS, and then resuspended in phenol red-free DMEM (supplemented with 10% FBS, 1% Streptomycin/Penicillin, and 2.4 mM L-glutamine) at a 2.0 × 10^5 cells/mL concentration. Approximately 100 µL of the cell solution was seeded into wells of several 96-well plates to begin the MTT assay, which was performed in the 5% (v/v) CO2 humidified atmosphere at 37 °C. At least one lane of wells in each plate was supplied media without cells as a control. […] Most of the compounds were dissolved in 1X PBS buffer at pH 7.4. […] Titanocene dichloride was prepared as a fresh stock solution in DMSO and then diluted in 0.1 M NaCl (aq) instead of 1X PBS (to minimize hydrolysis induced precipitation) to the desired concentration while maintaining a constant 1% (v/v) DMSO background (0.5% DMSO after mixing with the well media). A control of cells treated with media containing 1% (v/v) DMSO was included in the study. The titanocene solutions were used within an hour of preparation in the final cell solution. […] At 3 h before a total of 72 h of incubation with the compounds, the cells were treated with 25 µL of 9 mg/mL MTT prepared in 1X PBS and sterile-filtered. Upon completion of the three hours, 50 µL of 10% (w/v) SDS (prepared in 0.1 M Tris buffer at pH 11) was added to solubilize the purple formazan product crystals and left overnight in the incubator. Control wells in the plates consisted of: (1) Untreated cells + MTT as the measure of 100% viable cell growth in the media and (2) Media with no cells + MTT as the measure of zero cells in the media. Two sets of compounds could be tested per plate. The plates were read at the wavelength of 570 nm (absorbance of the formazan product at pH 10.0) and 800 nm (background control) using a Tecan plate reader. The absorbance of all wells was compared to the absorbance of the untreated cells with the MTT set as the 100% viable cell standard and the absorbance of the zero cell control set as the 0% viable cell standard. […] Nonlinear regression in Origin 8.5 was utilized to fit the growth curves using the pharmacology dose–response equation to determine the half-maximal inhibitory concentration (IC50) and the corresponding standard deviation. All samples were tested six times.

[9] = cited from earlier work
[10] = test system: HEK293 ATCC CRL-1573 human embryonic kidney cells; experiment: CO-ADD cytotoxicity assay (resazurin); type: cell-based; conditions: all concentrations examined (0.25-32 μg/mL), 20 h; CC50 could not be measured
Protocol: The compounds were used as received by the CO-ADD. For the screenings, most compounds were dissolved to a stock concentration of 10 mg/mL in DMSO. K2[Ti(Citrate)3], Na3Citrate, and K2[TiO(Oxalate)2] were dissolved in warm water. [Cu(Deferasirox)(H2O)]2 was dissolved in pyridine after its solubility was determined to be excellent in pyridine due to coordination of the solvent to the metal producing [Cu(Deferasirox)(pyridine)]2 in situ. […] Each sample concentration was prepared in 384-well plates, non-binding surface plate (NBS; Corning 3640) for each bacterial/fungal strain, tissue-culture treated (TC-treated; Corning 3712/3764), black for mammalian cell types and polypropylene 384-well (PP; […] All sample preparation was conducted using liquid handling robots. HEK293 ATCC CRL-1573 human embryonic kidney cells were counted manually in a Neubauer hemocytometer and added to compound-containing plates (384-well plates, tissue culture-treated (TC); […] Life Technologies 11995-073) with 10% FBS (GE SH30084.03).

[11] = test system: MRC-5 cells; conditions: cited from earlier work

| Molecule | MIC E. coli [1] | Dmax E. coli, maximum % inhibition [1] | MIC C. albicans [2] | Dmax C. albicans, maximum % inhibition [2] | MIC C. neoformans [3] | Dmax C. neoformans, maximum % inhibition [3] | MIC P. aeruginosa [4] | Dmax P. aeruginosa, maximum % inhibition [4] | MIC S. aureus (MRSA) [5] | Dmax S. aureus (MRSA), maximum % inhibition [5] | MIC K. pneumoniae [6] | Dmax K. pneumoniae, maximum % inhibition [6] | MIC A. baumannii [7] | Dmax A. baumannii, maximum % inhibition [7] | other results |
| --- | --- | --- | --- | --- | --- | --- | --- | --- | --- | --- | --- | --- | --- | --- | --- |
| [Cl-].[Cl-].[Ti+4].c1cc[cH-]c1.c1cc[cH-]c1 [Compound 13, Bis(cyclopentadienyl)titanium(IV) dichloride, reference compound] | >32 µg/mL | 23.76% | >32 µg/mL | 16.15% | >32 µg/mL | 6.5% | >32 µg/mL | 16.01% | >32 µg/mL | 51.55% | >32 µg/mL | 16.65% | >32 µg/mL | 15.78% | IC50 ± SD (µg/mL) [8]: >>24.9 µg/mL; IC50 ([8]; read-out: IC50 ± SD): > 100 µM; solution stability (in words) ([9]; pH 7.4): extremely hydrolysis prone |
| 4-[(3Z,5E)-3,5-Bis(6-oxocyclohexa-2,4-dien-1-ylidene)-1,2,4-triazolidin-1-yl] benzoic acid [Compound 4, reference compound] | >32 µg/mL | 7.72% | >32 µg/mL | 4.31% | >32 µg/mL | −25.58% | >32 µg/mL | 5.82% | >32 µg/mL | 44.31% | >32 µg/mL | 20.2% | >32 µg/mL | 18.95% | antiproliferative effect against HEK293 (in words) [10]: inactive; IC50 ± SD (µM) [11]: Proliferative Behavior; increase in the proliferation of MRC-5 cells [11]: nearly three-fold increase |
| Ti(BHPT)2 [Compound 9] | >32 µg/mL | −0.56% | >32 µg/mL | 4.27% | >32 µg/mL | −1.7% | >32 µg/mL | 10.27% | >32 µg/mL | 7.82% | >32 µg/mL | 6.35% | >32 µg/mL | 1.55% | activity against MRSA (in words) ([5]; CO-ADD screen, 32 μg/mL): inactive; IC50 ([11]; approximated relative IC50, compound inhibits proliferation at a maximum of 25%, read-out: IC50 (µM), approximated relative IC50): ~2.4 µM; IC50 (µg/mL), approximated relative IC50 ([11]; approximated relative IC50, compound inhibits proliferation at a maximum of 25%): ~1.5 µg/mL; solution stability (in words) ([9]; pH 4): highly stable in solution |
